Measurements: ChEMBL document CHEMBL4190339, “Design, synthesis and preliminary biological evaluation of new [1,2,3]triazolo[4,5-d]pyrimidine/thiourea hybrids as antiproliferative agents” (Eur J Med Chem, 2017)
Blank lines part the entries; values can stand above or below the compound they belong to. Calls of active or inactive are those of the source. No cut-off for these calls is given here.

Columns and labels:
MKN-45 = assay: Antiproliferative activity against human MKN45 cells after 48 hrs by MTT assay; format: functional, cell-based; details: MKN-45, 48 h
MGC-803 = assay: Antiproliferative activity against human MGC803 cells after 48 hrs by MTT assay; format: functional, cell-based; details: MGC-803, 48 h
NCI-H1650 [1] = assay: Antiproliferative activity against human NCI-H1650 cells after 48 hrs by MTT assay; format: functional, cell-based; details: NCI-H1650, 48 h
A549 = assay: Antiproliferative activity against human A549 cells after 48 hrs by MTT assay; format: functional, cell-based; details: A549, 48 h
ECa-109 cell line = assay: Antiproliferative activity against human EC109 cells after 48 hrs by MTT assay; format: functional, cell-based; details: ECa-109, 48 h
GES1 = assay: Antiproliferative activity against human GES-1 cells after 48 hrs by MTT assay; format: cell-based; details: GES1, 48 h
[2] = Selectivity index, ratio of IC50 for human GES-1 cells to IC50 for human NCI-H1650 cells; format: toxicity; details: GES-1 cells versus NCI-H1650 cells, read-out: Ratio IC50
NCI-H1650 [3] = assay: Anticlonogenic activity against human NCI-H1650 cells assessed as inhibition of colony formation at 10 uM after 9 days by crystal violet staining-based assay relative to control; format: functional; details: NCI-H1650, 216 h
NCI-H1650 [4] = assay: Anticlonogenic activity against human NCI-H1650 cells assessed as inhibition of colony formation after 9 days by crystal violet staining-based assay; format: functional, cell-based
NCI-H1650 [5] = assay: Induction of apoptosis in human NCI-H1650 cells assessed as early apoptotic cells at 2 uM after 24 hrs by Annexin-V-FITC/propidium iodide staining based flow cytometry (reference value: 5.58%); format: functional
NCI-H1650 [6] = assay: Induction of apoptosis in human NCI-H1650 cells assessed as late apoptotic cells at 2 uM after 24 hrs by Annexin-V-FITC/propidium iodide staining based flow cytometry (reference value: 7.64%); format: functional
NCI-H1650 [7] = assay: Induction of apoptosis in human NCI-H1650 cells assessed as necrotic cells at 2 uM after 24 hrs by Annexin-V-FITC/propidium iodide staining based flow cytometry (reference value: 3.22%); format: functional
NCI-H1650 [8] = assay: Induction of apoptosis in human NCI-H1650 cells assessed as viable cells at 2 uM after 24 hrs by Annexin-V-FITC/propidium iodide staining based flow cytometry (reference value: 83.6%); format: functional; details: NCI-H1650, 24 h, read-out: Activity
NCI-H1650 [9] = assay: Induction of apoptosis in human NCI-H1650 cells assessed as early apoptotic cells at 4 uM after 24 hrs by Annexin-V-FITC/propidium iodide staining based flow cytometry (reference value: 5.58%); format: functional
NCI-H1650 [10] = assay: Induction of apoptosis in human NCI-H1650 cells assessed as late apoptotic cells at 4 uM after 24 hrs by Annexin-V-FITC/propidium iodide staining based flow cytometry (reference value: 7.64%); format: functional
NCI-H1650 [11] = assay: Induction of apoptosis in human NCI-H1650 cells assessed as necrotic cells at 4 uM after 24 hrs by Annexin-V-FITC/propidium iodide staining based flow cytometry (reference value: 3.22%); format: functional
NCI-H1650 [12] = assay: Induction of apoptosis in human NCI-H1650 cells assessed as viable cells at 4 uM after 24 hrs by Annexin-V-FITC/propidium iodide staining based flow cytometry (reference value: 83.6%); format: functional; details: NCI-H1650, 24 h, read-out: Activity
NCI-H1650 [13] = assay: Induction of apoptosis in human NCI-H1650 cells assessed as increase in early apoptotic cells after 24 hrs by Annexin-V-FITC/propidium iodide staining based flow cytometry; format: functional, cell-based
NCI-H1650 [14] = assay: Induction of apoptosis in human NCI-H1650 cells assessed as increase in Bax expression measured after 24 hrs by Western blot analysis; format: functional, cell-based
NCI-H1650 [15] = assay: Induction of apoptosis in human NCI-H1650 cells assessed as reduction in Bcl-2 expression up to 8 uM after 24 hrs by Western blot analysis; format: functional, cell-based
NCI-H1650 [16] = assay: Induction of apoptosis in human NCI-H1650 cells assessed as increase in cleaved caspase-3 level up to 8 uM after 24 hrs by Western blot analysis; format: functional, cell-based
NCI-H1650 [17] = assay: Induction of apoptosis in human NCI-H1650 cells assessed as increase in cleaved caspase-9 level up to 8 uM after 24 hrs by Western blot analysis; format: functional, cell-based
NCI-H1650 [18] = assay: Cell cycle arrest in human NCI-H1650 cells assessed as accumulation at G1 phase at 2 uM after 24 hrs by propidium iodide staining-based flow cytometry (reference value: 55.7%); format: functional
NCI-H1650 [19] = assay: Cell cycle arrest in human NCI-H1650 cells assessed as accumulation at G2/M phase at 2 uM after 24 hrs by propidium iodide staining-based flow cytometry (reference value: 12.4%); format: functional
NCI-H1650 [20] = assay: Cell cycle arrest in human NCI-H1650 cells assessed as accumulation at S phase at 2 uM after 24 hrs by propidium iodide staining-based flow cytometry (reference value: 36.2%); format: functional
NCI-H1650 [21] = assay: Cell cycle arrest in human NCI-H1650 cells assessed as accumulation at S phase at 4 uM after 24 hrs by propidium iodide staining-based flow cytometry (reference value: 36.2%); format: functional
NCI-H1650 [22] = assay: Cell cycle arrest in human NCI-H1650 cells assessed as accumulation at G1 phase at 4 uM after 24 hrs by propidium iodide staining-based flow cytometry (reference value: 55.7%); format: functional
NCI-H1650 [23] = assay: Cell cycle arrest in human NCI-H1650 cells assessed as accumulation at G2/M phase at 4 uM after 24 hrs by propidium iodide staining-based flow cytometry (reference value: 12.4%); format: functional
NCI-H1650 [24] = assay: Cell cycle arrest in human NCI-H1650 cells assessed as accumulation at G1 phase at 8 uM after 24 hrs by propidium iodide staining-based flow cytometry (reference value: 55.7%); format: functional
NCI-H1650 [25] = assay: Cell cycle arrest in human NCI-H1650 cells assessed as accumulation at G2/M phase at 8 uM after 24 hrs by propidium iodide staining-based flow cytometry (reference value: 12.4%); format: functional
NCI-H1650 [26] = assay: Cell cycle arrest in human NCI-H1650 cells assessed as accumulation at S phase at 8 uM after 24 hrs by propidium iodide staining-based flow cytometry (reference value: 36.2%); format: functional
NCI-H1650 [27] = assay: Cell cycle arrest in human NCI-H1650 cells assessed as accumulation at G2/M phase after 24 hrs by propidium iodide staining-based flow cytometry; format: functional

IC50 (MKN-45): 19.2 µM
IC50 (MGC-803): 25.2 µM
IC50 (NCI-H1650 [1]): 15.3 µM
IC50 (A549): 10.6 µM
SMILES: CCCSc1nc(NCCNC(=S)Nc2cccnc2)c2nnn(CC(C)C)c2n1
IC50 (ECa-109 cell line): > 64 µM
IC50 (GES1): 48.2 µM

IC50 (MKN-45): > 64 µM
IC50 (MGC-803): 31.2 µM
IC50 (NCI-H1650 [1]): 40.9 µM
IC50 (A549): > 64 µM
SMILES: CCCCc1ccc(NC(=S)NCCNc2nc(SCCC)nc3c2nnn3CCc2ccccc2)cc1
IC50 (ECa-109 cell line): 18.9 µM
IC50 (GES1): > 64 µM

IC50 (MKN-45): 25 µM
IC50 (MGC-803): > 64 µM
IC50 (NCI-H1650 [1]): 45.9 µM
IC50 (A549): > 64 µM
SMILES: CCCSc1nc(NCCNC(=S)Nc2cccnc2)c2nnn(CCO)c2n1
IC50 (ECa-109 cell line): 18.2 µM
IC50 (GES1): > 64 µM

The remaining lines, values behind:

SMILES: CCCSc1nc(NCCNC(=S)Nc2ccccc2)c2nnn(CCc3ccccc3)c2n1
IC50 (MKN-45): > 64 µM
IC50 (MGC-803): > 64 µM
IC50 (NCI-H1650 [1]): 49.5 µM
IC50 (A549): > 64 µM
IC50 (ECa-109 cell line): 37.2 µM
IC50 (GES1): 53.1 µM

SMILES: CCCSc1nc(NCCNC(=S)Nc2ccccc2Cl)c2nnn(CCc3ccccc3)c2n1
IC50 (MKN-45): > 64 µM
IC50 (MGC-803): > 64 µM
IC50 (NCI-H1650 [1]): 18.2 µM
IC50 (A549): > 64 µM
IC50 (ECa-109 cell line): > 64 µM
IC50 (GES1): > 64 µM

SMILES: CCCSc1nc(NCCNC(=S)Nc2cccnc2)c2nnn(CCc3c[nH]c4ccccc34)c2n1
IC50 (MKN-45): 3.22 µM
IC50 (MGC-803): 9.21 µM
IC50 (NCI-H1650 [1]): 1.91 µM
IC50 (A549): 3.28 µM
IC50 (ECa-109 cell line): 8.12 µM
IC50 (GES1): 27.4 µM
selectivity ratio [2]: 14.4
inhibition at 10 µM (NCI-H1650 [3]): ≤ 68%
inhibition (NCI-H1650 [4]): Dose-dependent effect
Activity (NCI-H1650 [5]): 35.5%
Activity (NCI-H1650 [6]): 12.3%
Activity (NCI-H1650 [7]): 1.14%
viability at 2 µM (NCI-H1650 [8]): 51.1%
Activity (NCI-H1650 [9]): 36.7%
Activity (NCI-H1650 [10]): 15.1%
Activity (NCI-H1650 [11]): 1.38%
viability at 4 µM (NCI-H1650 [12]): 46.8%
Activity (NCI-H1650 [13]): Dose-dependent effect
Activity (NCI-H1650 [14]): Dose-dependent effect
Activity (NCI-H1650 [15]): Active
Activity (NCI-H1650 [16]): Active
Activity (NCI-H1650 [17]): Active
Activity (NCI-H1650 [18]): 30.6%
Activity (NCI-H1650 [19]): 23.2%
Activity (NCI-H1650 [20]): 35.1%
Activity (NCI-H1650 [21]): 21.9%
Activity (NCI-H1650 [22]): 27.2%
Activity (NCI-H1650 [23]): 34.7%
Activity (NCI-H1650 [24]): 20.8%
Activity (NCI-H1650 [25]): 45.6%
Activity (NCI-H1650 [26]): 38.4%
Activity (NCI-H1650 [27]): Dose-dependent effect

SMILES: CCCSc1nc(NCCNC(=S)Nc2cccc(C(F)(F)F)c2)c2nnn(CCc3ccccc3)c2n1
IC50 (MKN-45): 35.6 µM
IC50 (MGC-803): 33.9 µM
IC50 (NCI-H1650 [1]): 24.2 µM
IC50 (A549): 17.2 µM
IC50 (ECa-109 cell line): 17.8 µM
IC50 (GES1): 23.2 µM

SMILES: CCCSc1nc(NCCNC(=S)Nc2ccccn2)c2nnn(CCc3ccccc3)c2n1
IC50 (MKN-45): 8.09 µM
IC50 (MGC-803): 11.6 µM
IC50 (NCI-H1650 [1]): 7.62 µM
IC50 (A549): 5.91 µM
IC50 (ECa-109 cell line): 5.41 µM
IC50 (GES1): 23.1 µM

SMILES: CCCSc1nc(NCCNC(=S)Nc2ccc([N+](=O)[O-])cc2)c2nnn(CCc3ccccc3)c2n1
IC50 (MKN-45): 48.2 µM
IC50 (MGC-803): > 64 µM
IC50 (NCI-H1650 [1]): 26.1 µM
IC50 (A549): 39.1 µM
IC50 (ECa-109 cell line): 58.1 µM
IC50 (GES1): 35.2 µM
